Type in all cases: cell-based
For data set [1], the system named is GFP gene in GFP-expressing HEK293 cells. The experiment in a line: CRISPR-Cas9 experiments in GFP-expressing HEK293 cells, flow cytometry. The note with it: then suppressor 10 μM 24 h, 48 h growth, duplicate; for inactivation of sgRNA3-(U4Tz1) inside the cells (MFI of GFP): Cas9 mRNA + sgRNA3-(U4Tz1) 48 h; for inactivation of sgRNA3-(U4Tz2) inside the cells (MFI of GFP): Cas9 mRNA + sgRNA3-(U4Tz2) 48 h. The protocol: CRISPR-Cas9 experiments were carried out following the procedure reported by Yin et al. The GFP-expressing HEK293 cells were purchased from GenTarget (cat.# SC001) and cultured in DMEM, containing 10% FBS and 1X Penicillin/Streptomycin, at 37°C, 5% CO2, and 95% humidity. The cells were seeded at a concentration of 1 × 10^5 cells per well in a six-well plate 24 h prior to the experiment. The cells were transfected with Cas9 mRNA (500 ng, Thermo Fisher Scientific), GFP-targeting sgRNAs (30 nM) using lipofectamine (1.5 μL) (Invitrogen™ LMRNA003) for 72 h in Opti-MEM reduced serum media. After 72 h, Opti-MEM was replaced with fresh DMEM, and the cells were grown for an additional 48 h. The cells were treated with trypsin for 5 min, collected by centrifugation at 1000 RPM, and suspended in PBS (1 mL). GFP expression was analyzed by flow cytometry. Data from 10^6 cells were acquired using a FACS Aria III cell sorter equipped with a 488 nm/blue coherent sapphire solid-state laser, 20 mW (BD Biosciences, San Jose, CA, USA). Data analyses were carried out using FlowJo software (Ashland, OR, USA), according to the manufacturer’s instructions. Parameters, such as MFI and the percentages of specific populations, were quantified by histogram analysis.
Ability of TCO-modified CRISPR suppressors to control nuclease activity was examined as follows: GFP-expressing HEK239 cells were co-transfected with Cas9 mRNA (500 ng, Thermo Fisher Scientific), GFP-targeting sgRNAs (30 nM) using lipofectamine (1.5 μL) (Invitrogen™ LMRNA003) for 48 h. Then, AAA-PNA-TCO, TTT-PNA-TCO, TCO-CPP-RRWQW, and TCO-CPP-RLRWR (10 μM) were added to the media. After 24 h of treatment with the TCO-modified CRISPR suppressors, the media were replaced with fresh DMEM, and the cells were allowed to grow for an additional 48 h. The cells were treated with trypsin for 5 min, collected by centrifugation at 1000 RPM, and suspended in PBS (1 mL). GFP expression was analyzed by flow cytometry. Data from 10^6 cells were acquired using a FACS Aria III cell sorter equipped with a 488 nm/blue coherent sapphire solid-state laser, 20 mW (BD Biosciences, San Jose, CA, USA). Data analyses were carried out using FlowJo software (Ashland, OR, USA), according to the manufacturer’s instructions. Parameters, such as MFI and the percentages of specific populations, were quantified by histogram analysis.

In data set [2] the test system is VEGFA in HEK293T cells. Nature of the data set: Western blot analysis of CRISPR-Cas9 experiments targeting VEGFA. Particulars: Cas9 mRNA + sgRNA4-(U4Tz1) or sgRNA4-(U4Tz2), suppressor 10 μM added after 48 h of transfection. On the procedure:
Total protein lysate was harvested in RIPA buffer, and proteins separated by 10% SDS-PAGE were transferred to a PVDF membrane by using High MW protocol on Biorad Turbo wet transfer. Following transfer, membranes were blocked in 5% milk in PBST for 1 h at room temperature, washed three times in PBS with 0.1% (w/v) Tween 20 (PBS/T) for 10 min each and placed in primary antibody overnight at 4 °C. Primary antibody was rabbit VEGFA polyclonal antibody (1:2000 dilution, Cat.# 19003–1-AP, Proteintech) and α-tubulin monoclonal antibody (1:20 000 dilution, Cat.# 666031–1-Ig, Proteintech) in 5% BSA in PBS/T. Following overnight incubation, membranes were washed three times in PBS/T for 10 min each. Then membranes were incubated in a 1:10 000 dilution of goat anti-rabbit secondary (Jackson), goat-anti-mouse secondary in 5% milk, and PBS/T. Membranes were washed a final 3 times in PBS/T for 10 min each prior to being imaged on the BioRad ChemiDoc by using Thermo Scientific SuperSignal West Pico PLUS Chemiluminescent Substrate (BioRad, Cat.# 34 577).
To assess the new constructs, HEK239T cells were co-transfected with the unmodified sgRNA4, sgRNA4-(U4Tz1), or sgRNA4-(U4Tz2) and commercially available mRNA that encodes the Cas9 gene for 72 h. […] VEGFA expression was once again analyzed by Western blot.

Data set [3] has as its system HEK293 cells. The experiment in a line: Assessment of cell permeability of TCO-modified CRISPR suppressors with OG-Tz fluorescent probe. The note with it: suppressor 30 μM 3 h, then OG-Tz 50 μM 2 h; for cellular fluorescence in the Oregon Green channel: confocal microscopy; for cell permeability: microscopy, confirmed by flow cytometry. On the procedure:
The studies were carried out using the previously reported OG-Tz fluorescent probe. The chemical structure of OG-Tz is shown in Supplementary Fig. S7. OG-Tz was synthesized using the procedure reported by Devaraj and co-workers. The HEK293 cells were cultured in DMEM, containing 10% FBS and 1X Penicillin/Streptomycin, at 37°C, 5% CO2, and 95% humidity. The cells were seeded at a concentration of 1 × 10^5 cells per well in a six-well plate 24 h prior to the experiment. The cells were treated with the TCO-modified CRISPR suppressors (30 μM) for 3 h. Then, the media was replaced, and the cells were treated with OG-Tz (50 μM) for 2h. Afterwards, the cells were treated with trypsin for 5 min, collected by centrifugation at 1000 RPM, and suspended in PBS (1 mL). GFP expression was analyzed by flow cytometry. Data from 10^6 cells were acquired using a FACS Aria III cell sorter equipped with a 488 nm/blue coherent sapphire solid-state laser, 20 mW (BD Biosciences, San Jose, CA, USA). Data analyses were carried out using FlowJo software (Ashland, OR, USA), according to the manufacturer’s instructions. Parameters, such as MFI and the percentages of specific populations, were quantified by histogram analysis.
HEK293 cells were grown to ∼70% confluence in 35 mm MatTek glass bottom dishes in DMEM supplemented with 10% […], penicillin, and streptomycin. The cells were treated with AAA-PNA-TCO, TTT-PNA-TCO, TCO-CPP-RRWQW, or TCO-CPP-RLRWR (30 μM) for 3 h. Afterwards, the cells were treated with OG-Tz (50 μM) for 2 h. Hoechst 33 258 dye was used for nuclear staining. Cellular fluorescence was analyzed using confocal microscopy. Microscopy experiments were carried out using a Zeiss LSM980 confocal microscope.

Residues, ends and D or L forms follow the SMILES beside them. *: point of attachment. X1 = O=C(COC1CC/C=C/CCC1)*

In the case of `CC(C)C[C@H](NC(=O)[C@H](CCCNC(=N)N)NC(=O)COC1CC/C=C/CCC1)C(=O)N[C@@H](CCCNC(=N)N)C(=O)N[C@@H](Cc1c[nH]c2ccccc12)C(=O)N[C@@H](CCCNC(=N)N)C(=O)O` (stereo partly shown) [TCO-CPP-RLRWR] (X1-RLRWR-OH), in data set [1], the “inactivation of sgRNA3-(U4Tz1) inside the cells (MFI of GFP)” value is on record as “Analogous results” and the “inactivation of sgRNA3-(U4Tz2) inside the cells (MFI of GFP)” value is recorded as “Analogous results”. Further, the “VEGFA expression after addition of suppressor” value in data set [2] is “higher VEGFA expression”. Moreover, in data set [3], the “cellular fluorescence in the Oregon Green channel” value is on record as “strongest fluorescence” and the cell permeability entry was “good cell permeability”.
For `N=C(N)NCCC[C@H](NC(=O)COC1CC/C=C/CCC1)C(=O)N[C@@H](CCCNC(=N)N)C(=O)N[C@@H](Cc1c[nH]c2ccccc12)C(=O)N[C@@H](CCC(N)=O)C(=O)N[C@@H](Cc1c[nH]c2ccccc12)C(=O)O` (stereo partly shown) [TCO-CPP-RRWQW] (X1-RRWQW-OH), in data set [1], the “inactivation of sgRNA3-(U4Tz1) inside the cells (MFI of GFP)” value was “able to inactivate” and the “inactivation of sgRNA3-(U4Tz2) inside the cells (MFI of GFP)” value is given as “able to inactivate”. Further, the “VEGFA expression after addition of suppressor” value in data set [2] is recorded as “higher VEGFA expression”. For the same molecule, in data set [3], the “cellular fluorescence in the Oregon Green channel” value is given as “strongest fluorescence” and the cell permeability result was “good cell permeability”.
